As usually defined, the IC50 is the concentration needed to halve the response being measured.

For one assay, the system named is LOX. The assay can be described thus: Microculture tetrazolium assay. Format: cell-based. The conditions noted are these: read-out: IC50.
Assay [1] deals with HT29. The assay can be described thus: Soft agar colony formation disk diffusion assay. It is filed as cell-based, human. The essentials: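 Cells were plated at 10^4–2×10^5 cells per dish in a 0.4% Noble agar upper layer over 0.8% agar. The compound (DMSO/water solution) was applied on a 6.5 mm filter disk, and plates were incubated at 37 °C, 5% CO2 for 10–20 days. Anti-clonogenic activity was measured microscopically as the inhibition zone from the disk edge to the nearest colonies (>50 cells).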
For orientation: Agar diffusion results depend on both activity and mobility in agar.

For a further assay, the system named is T47D. Put plainly: Microculture tetrazolium assay. The conditions noted are these: Homo sapiens, read-out: IC50. It is filed as cell-based.
A further assay concerns SKOV3. Put plainly: Microculture tetrazolium assay. The conditions noted are these: Homo sapiens, SK-OV-3, SKOV3; read-out: IC50. It is filed as cell-based.
The next assay has as its system MATB.WT. The assay can be described thus: Soft agar colony formation disk diffusion assay. Format: cell-based, rat. An outline of the steps: (§1)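 Anti-clonogenic activity is scored as the distance from the drug-loaded disk edge to the closest colony of more than 50 cells. Solid tumour and leukaemia lines are plated in separate dishes in two-layer soft agar and incubated 10-20 days at 37° C.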

A further assay has as its system MATB/ADR. Put plainly: Soft agar colony formation disk diffusion assay. Format: cell-based, rat. The essentials: as §1
The test system of the next assay is P388. The assay can be described thus: Soft agar colony formation disk diffusion assay. Format: cell-based, murine. The essentials: as §1
A further assay has as its system M5076. Put plainly: Soft agar colony formation disk diffusion assay. Format: cell-based, murine. The essentials: as §1
The subject of another assay is LL. Put plainly: Soft agar colony formation disk diffusion assay. Format: cell-based, murine. The essentials: as §1
The test system of another assay is P388/ADR. The assay can be described thus: Soft agar colony formation disk diffusion assay. It is filed as cell-based, murine. The essentials: as §1
Another assay concerns B16. The assay can be described thus: Soft agar colony formation disk diffusion assay. Format: cell-based, murine. An outline of the steps: as §1
The test system of assay [2] is HT29. The assay can be described thus: Microculture tetrazolium assay. The conditions noted are these: Homo sapiens, HT-29, HT29; read-out: IC50. Format: cell-based.

`COC(=O)[C@@H]1CC2=C(C(=O)c3c(cc4ccccc4c3O)C2=O)[C@@H](O[C@H]2C[C@H](NC(=O)C(F)(F)F)[C@H](O)[C@H](C)O2)O1` [BCH-691, (1'S,1R,3S)-Methyl-{11-hydroxy-1-(2',3',6'-trideoxy-3'-trifluoroacetamido-4'-hydroxy-L-lyxoheoxpyranose)-5,12-dioxo-3,4,5,12-tetrahydroanthraceno[2,3-c]pyran-3-yl}formate]: the IC50 with LOX came to 1.37 µM; in the assay on T47D, 2.25 µM; with SKOV3 it was 1.27 µM; with HT29 [2] it was 0.301 µM. In addition, the zone of inhibition in the assay on HT29 [1] (10 μg/DISK) is on record as 137.0 ± 21.2 Zone Units; in the assay on HT29 [1] (100 μg/DISK) it was 198.0 ± 21.2 Zone Units; in the assay on MATB.WT (10 μg/DISK), 120.0 ± 50.5 Zone Units; in the assay on MATB.WT (100 μg/DISK), 380.0 ± 120.0 Zone Units; in the assay on MATB/ADR (10 μg/DISK) it was 0 Zone Units; with MATB/ADR (100 μg/DISK), 200.0 ± 95.0 Zone Units. The zone of inhibition stood at 100.5 ± 50.0 Zone Units in the assay with P388 (10 μg/DISK); 200.2 ± 50.0 Zone Units in the assay on P388 (100 μg/DISK); 120.0 ± 28.8 Zone Units in the assay with M5076 (10 μg/DISK); 220.0 ± 50.8 Zone Units with M5076 (100 μg/DISK); 50.6 ± 25.5 Zone Units in the assay on LL (10 μg/DISK); 180.0 ± 120.0 Zone Units with LL (100 μg/DISK). The zone of inhibition in the assay on P388/ADR (10 μg/DISK) is 50.0 ± 10.0 Zone Units; in the assay with P388/ADR (100 μg/DISK), 98.0 ± 15.0 Zone Units; in the assay with B16 (10 μg/DISK), 114.0 ± 30.2 Zone Units; with B16 (100 μg/DISK), 250.0 ± 58.0 Zone Units.

The values above are taken from patent publication US5593970A, “Heterocyclic anthracycline analogs” (priority 1994, dated 1997).
